Experimental data from US4593092A, “Class of spiro-linked pyrrolidine-2,5-diones” (Kyorin Pharmaceutical Co., Ltd., priority 1983, dated 1986).
Like-named read-outs stand apart in the source and are kept apart here.

Key:
aldose reductase [1] = target: T1, aldose reductase (Rattus norvegicus, UniProt P07943); test: Inhibitory activity on aldose reductase in vivo (serum of orally dosed rats added to the aldose reductase assay); conditions: oral, 0.5 ml added to assay
T1 construct: partially purified enzyme from rat lens; from tissue; host or cells: rat lens
Experimental: (§1) Aldose reductase preparation used in this test was partially purified enzyme from rat lens.
In order to estimate whether the compounds are available for inhibiting the enzyme in vivo, following preliminary test was carried out.
2 and 5 hours later, blood samples were taken from the rats. A 0.5 ml of serum, instead of the compound, was added to the assay system described in Experiment 1.

aldose reductase [2] = target: T1, aldose reductase; test: Inhibitory activity on aldose reductase in vitro; type: biochemical; conditions: partially purified enzyme from rat lens
Excerpt: as §1

[3] = tested on: pentylenetetrazole convulsion; test: Anti-convulsion test (pentylenetetrazole convulsion); type: in vivo; conditions: ICR mice; Example 2 orally at 50, 200, 500 and 800 mg/kg; pentylenetetrazole 100 mg/kg i.p. 2 hours later
Experimental: Mice (ICR stain) were administered orally with the compound of Example 2 at various doses of 50, 200, 500 and 800 mg/kg and injected with pentylenetetrazole at a dose of 100 mg/kg intraperitoneally 2 hours later.

[4] = Acute toxicity on mice, oral; conditions: mouse, in vivo
Experimental: Acute toxicity was tested by oral administration with the compounds of this invention in fasted mice (ICR stain).

[5] = serum taken 2 hr after administration, read-out: Inhibition % on aldose reductase in vivo, 2 hr after administration
[6] = serum taken 5 hr after administration, read-out: Inhibition % on aldose reductase in vivo, 5 hr after administration

inhibition at 25 mg/kg (aldose reductase [1]; [5]) [%] | inhibition at 25 mg/kg (aldose reductase [1]; [6]) [%] | IC50 (aldose reductase [2]) [nM] | SMILES | anti-convulsion activity (suppressive effect on pentylenetetrazole convulsion) [3] | LD50 ([4]; oral, fasted ICR mice) [mg/kg] | LD50 ([4]; po) [mg/kg]
61.2 | 49.8 | 6000 | O=C1CC2(C(=O)N1)C(=O)N1CCCc3cccc2c31 (stereo not shown) [Example 1, 5',6'-Dihydrospiro[pyrrolidine-3,1'-[4H]pyrrolo[3,2,1-ij]quinoline]-2,2',5(1'H)-trione] | – | – | –
53.3 | 42.6 | 9000 | CC1CCc2cccc3c2N1C(=O)C31CC(=O)NC1=O (stereo not shown) [Example 3] | – | – | –
71.5 | 70.2 | 350 | CC1CCc2cc(Cl)cc3c2N1C(=O)C31CC(=O)NC1=O (stereo not shown) [Example 4] | – | – | –
52.3 | 47.6 | 5000 | O=C1CC2(C(=O)N1)C(=O)N1CCOc3cccc2c31 (stereo not shown) [Example 5] | – | – | –
48.4 | 33.8 | 2000 | Cc1cc2c3c(c1)C1(CC(=O)NC1=O)C(=O)N3CCC2 (stereo not shown) [Example 7, 5',6'-Dihydro-8'-methylspiro[pyrrolidine-3,1'-[4H]pyrrolo[3,2,1-ij]quinoline]-2,2',5(1'H)-trione] | – | – | –
72.3 | 71.3 | 2000 | O=C1CC2(C(=O)N1)C(=O)N1CCSc3cccc2c31 (stereo not shown) [Example 11] | – | – | –

Continued, molecule first:

SMILES | inhibition at 25 mg/kg (aldose reductase [1]; [5]) [%] | inhibition at 25 mg/kg (aldose reductase [1]; [6]) [%] | IC50 (aldose reductase [2]) [nM] | anti-convulsion activity (suppressive effect on pentylenetetrazole convulsion) [3] | LD50 ([4]; oral, fasted ICR mice) [mg/kg] | LD50 ([4]; po) [mg/kg]
O=C1CC2(C(=O)N1)C(=O)N1CCCc3cc(Cl)cc2c31 (stereo not shown) [Example 2, 8'-Chloro-5',6'-dihydrospiro[pyrrolidine-3,1'-[4H]pyrrolo[3,2,1-ij]quinoline]-2,2',5(1'H)-trione] | 71.7 | 68.5 | 400 | did not show any suppressive effect | – | –
O=C1CC2(C(=O)N1)C(=O)N1c3ccccc3Sc3cccc2c31 (stereo not shown) [Example 6, Spiro[pyrrolidine-3,2'-pyrrolo[3,2,1-kl]phenothiazine]-1',2,5(2'H)-trione] | 11.8 | 13.4 | 350 | – | > 2000 | –
O=C1CC2(C(=O)N1)C(=O)N1CCOc3cc(Cl)cc2c31 (stereo not shown) [Example 8, 8'-Chloro-2',3'-dihydrospiro[pyrrolidine-3,6'-pyrrolo[1,2,3-de][1,4]benzoxazine]-2,5,5'(6'H9-trione] | 62.5 | 61.4 | 600 | – | – | > 2000
O=C1CC2(C(=O)N1)C(=O)N1CCOc3c(Cl)ccc2c31 (stereo not shown) [Example 12] | 72.3 | 73.9 | 1500 | – | – | > 2000
O=C1CC2(C(=O)N1)C(=O)N1CCOc3c(Cl)c(Cl)cc2c31 (stereo not shown) [Example 13] | 78.2 | 81.2 | 200 | – | – | > 2000
O=C1CC2(C(=O)N1)C(=O)N1CCOc3cc(F)cc2c31 (stereo not shown) [Example 14] | 75.1 | 75.8 | 700 | – | – | > 1000
O=C1CC2(C(=O)N1)C(=O)N1CCOc3c(F)c(F)cc2c31 (stereo not shown) [Example 15] | 74.9 | 75.2 | 700 | – | – | –
Cc1cc2c3c(c1)C1(CC(=O)NC1=O)C(=O)N3CCO2 (stereo not shown) [Example 16] | – | – | 2500 | – | – | > 2000
COc1cc2c3c(c1)C1(CC(=O)NC1=O)C(=O)N3CCO2 (stereo not shown) [Example 17] | – | – | 35000 | – | – | –
O=C1NC(=O)[C@@]2(CCOc3ccc(F)cc32)N1 [Sorbinil, (4S)2,3-dihydro-6-fluorospiro[4H--1benzopyran-4,4 imidazolidine2',5dione, reference compound] | 79.8 | 79.5 | – | dose-dependent protection against the tonic convulsion | – | –
O=C1NC(=O)C(c2ccccc2)(c2ccccc2)N1 [phenytoin] | – | – | – | dose-dependent protection against the tonic convulsion | – | –
